Laboratory results published in US9550785B2, “Pyrrolopyrimidines as therapeutic agents for the treatment of diseases” (GlaxoSmithKline LLC, priority 2012, dated 2017).
Counter-ions that a name gives are not always drawn.

How the values were obtained:
[1] = system: Interferon-α; experiment: Induction of Interferon-α using fresh human whole blood (WB); type: cell-based; details: three donors, overnight incubation, cytokine released as percentage of 2 μM resiquimod control, read-out: mean pEC50 for INF-α (converted)
Description: (§1) Assay for the Induction of Interferon-α and TNF-α Using Fresh Human Whole Blood (WB)
(§2) Compounds were prepared at 100× required concentration in DMSO in flat-bottom microtitre plates at a volume of 1.5 μL. Columns 1-10 contained a 1 in 4 serial dilution of the test compound. Included on each plate was a serial dilution of the TLR7/8 agonist resiquimod as a standard and Column 11 contained 1.5 μl of 200 μM resiquimod (giving a 2 μM final concentration, used to define the approximate maximal response to resiquimod). Each compound was assayed in duplicate for each donor.
(§3) Blood samples from three human donors were collected into sodium heparin (10 U/ml). 150 μl of whole Blood was dispensed into Col 1 to 11 of assay plates containing 1.5 μl of test compound or standard in DMSO. Plates were placed in an incubator overnight (37° C., 95% air, 5% CO2). Following the overnight incubation, plates were removed from the incubator & mixed on an orbital shaker for approximately 1 minute. 100 μl of 0.9% saline was added to each well and the plates mixed again on an orbital shaker. Plates were then centrifuged (2500 rpm, 10 mins), after which a sample of plasma was removed using a Biomek FX and assayed for both IFN-α and TNF-α using the MSD (Mesoscale Discovery) electrochemiluminescence assay platform. The IFN-α assay was carried out similarly to that described above. The TNF-α assay was carried out as per kit instructions (Cat No K111BHB).
(§4) Cytokine released was expressed as a percentage of the 2 μM resiquimod control (column 11). This percentage was plotted against compound concentration and the pEC50 for the response determined by non-linear least squares curve fitting. For the IFN-α responses, generally a 4 parameter logistic model was selected. For the TNF-α responses where a clear maximum response was obtained (i.e. a well defined plateau in the response was observed) then a 4 parameter model was generally used. […]

[2] = system: TNF-α; experiment: Induction of TNF-α using fresh human whole blood (WB); type: cell-based; details: three donors, overnight incubation, cytokine released as percentage of 2 μM resiquimod control, read-out: mean pEC50 for TNF-α (converted)
Description: as §1, §2, §3, §4

EC50 [1] [µM]	EC50 [2] [µM]	Structure (SMILES)
≤ 0.398	≤ 10	CCCCc1nc(N)c2[nH]cc(CCCC3CCNCC3)c2n1 [Example 1, 2-Butyl-7-(3-(piperidin-4-yl)propyl)-5H-pyrrolo[3,2-d]pyrimidin-4-amine formate]
≤ 0.398	≤ 10	CCCCc1nc(N)c2[nH]cc(CCCC3CCN(C(C)C)CC3)c2n1 [Example 2, 2-Butyl-7-(3-(1-isopropylpiperidin-4-yl)propyl)-5H-pyrrolo[3,2-d]pyrimidin-4-amine]
≤ 0.398	≤ 10	CCCCc1nc(N)c2[nH]cc(CCC3CCNCC3)c2n1 [Example 3, 2-Butyl-7-(2-(piperidin-4-yl)ethyl)-5H-pyrrolo[3,2-d]pyrimidin-4-amine]
